From patent EP3072514A1, “Novel oral anticoagulants (NOACs) for preventing development and aggravation of atrial fibrillation” (Université Pierre et Marie Curie - Paris 6 (UPMC), priority 2015, dated 2016)

Legend:
blood coagulation = test: Thrombin time (TT) on blood collected by cardiac puncture at sacrifice of I/R rats; type: in vivo, Male OFA Sprague-dawley rats; settings: 25 mg/kg/day (12.5 mg/kg BID) by force-feeding; with reference to the mean value of sham animals
Description: • Figure 1 is a combination of two graphs showing left atrium (LA) area after one month of treatment with DTI Dabigatran (A) or S35792 (B). Vehicle (V) is 60% H2O/40% PEG 300 for dabigatran and saline for S35972. Treatment of rats started just after thoracotomy without (Sham) or with occlusion of left coronary artery followed by reperfusion (I/R). […] Vehicle (V) is 60% H2O/40% PEG 300 for dabigatran and saline for S35972. Treatment of rats started just after thoracotomy without (Sham) or with occlusion of left coronary artery followed by reperfusion (I/R). Results are presented as mean +/- S.E.M. * P<0.05; ** P<0.001, *** P<0.001 vs Sham; #P<0.05 vs untreated I/R. • Figure 3 is a combination of two graphs showing thrombin time (TT), which reflects anticoagulant activity, and plasma concentrations of Dabigatran (A) and S35792 (B) in rats after throracotomy with occlusion of left coronary artery followed by reperfusion (I/R). Vehicle (V) is 60% H2O/40% PEG 300 for dabigatran and saline for S35972. […] DTI plasma levels are quantified using LC-MS/MS. TT are expressed as mean +/- S.E.M with reference to the mean value of sham animals that underwent thoracotomy only. *** P<0.001 vs untreated I/R. • Figure 4 is a combination of three graphs showing left atrium (LA) area (A) and diameter (B) and left ventricle end-diastolic (LVED) diameter (C) after two months of treatment with S35972. […] LA area was measured by bidimensional echocardiography. LA and LVED diameters were measured in time-motion mode. […] AF duration is measured as the time between the end of the electric stimulation and the return to sinusoidal rhythm. […] Expression of mRNA was measured with real-time qPCR. […] Expression of mRNA was measured with real-time qPCR. […] Expression of mRNA was measured with real-time qPCR. […] LA area was measured by bidimensional echocardiography. LVED and LA diameters were measured in time-motion mode. […] AF duration is measured as the time between the end of the electric stimulation and return to sinusoidal rhythm. […]

[1] = Plasma concentration by LC-MS/MS in I/R rats; design: species or system Male OFA Sprague-dawley rats; settings: rat, in vivo; 25 mg/kg/day (12.5 mg/kg BID) by force-feeding, 4 weeks; blood 90 minutes after last oral administration; ± SD
Description: • Figure 1 is a combination of two graphs showing left atrium (LA) area after one month of treatment with DTI Dabigatran (A) or S35792 (B). Vehicle (V) is 60% H2O/40% PEG 300 for dabigatran and saline for S35972. Treatment of rats started just after thoracotomy without (Sham) or with occlusion of left coronary artery followed by reperfusion (I/R). Results are presented as mean +/- S.E.M, *P<0.05, **P<0.01 and *** P<0.001 vs Sham; ^##P<0.01 and ^###P<0.001 vs untreated I/R. • Figure 2 is a combination of graphs showing left ventricular end-diastolic (LVED) diameter and fractional shortening (FS) after one month of treatment with Dabigatran (A) or S35792 (B). Vehicle (V) is 60% H2O/40% PEG 300 for dabigatran and saline for S35972. Treatment of rats started just after thoracotomy without (Sham) or with occlusion of left coronary artery followed by reperfusion (I/R). Results are presented as mean +/- S.E.M. * P<0.05; ** P<0.001, *** P<0.001 vs Sham; #P<0.05 vs untreated I/R. • Figure 3 is a combination of two graphs showing thrombin time (TT), which reflects anticoagulant activity, and plasma concentrations of Dabigatran (A) and S35792 (B) in rats after throracotomy with occlusion of left coronary artery followed by reperfusion (I/R). Vehicle (V) is 60% H2O/40% PEG 300 for dabigatran and saline for S35972. […] DTI plasma levels are quantified using LC-MS/MS. TT are expressed as mean +/- S.E.M with reference to the mean value of sham animals that underwent thoracotomy only. *** P<0.001 vs untreated I/R. • Figure 4 is a combination of three graphs showing left atrium (LA) area (A) and diameter (B) and left ventricle end-diastolic (LVED) diameter (C) after two months of treatment with S35972. […] LA area was measured by bidimensional echocardiography. LA and LVED diameters were measured in time-motion mode. […] AF duration is measured as the time between the end of the electric stimulation and the return to sinusoidal rhythm. […] Expression of mRNA was measured with real-time qPCR. […] Expression of mRNA was measured with real-time qPCR. […]

## [H]/N=C(/N)c1ccc(NCc2nc3cc(C(=O)N(CCC(=O)O)c4ccccn4)ccc3n2C)cc1 [dabigatran, reference compound]
Blood coagulation
  thrombin time increases by a factor: 8
[1]
  concentration at 1.5 h: 49.2 ± 19.3 ng/mL
